This experiment concerns Sprague-Dawley rats. Put plainly: Copulatory activity (sexual behaviour) test in male rats with very short ejaculation latency. Conditions: for ejaculation latency (EL) / intromission frequency (IF) / intromission latency (IL) / mount frequency (MF) / mount latency (ML) / postejaculatory interval (PEI): 45 min before test, mean ± SEM (n = 8-10). In kind it is in vivo, rat. The protocol: The resulting extract was solubilised in Tween 80 (10%) and water and administered to test animals through a gastric probe, in a volume of 5 ml/kg, at different doses, 45 minutes before the in vivo test. Sprague-Dawley rats were used, both males (weighing approx. 220 g) and females (weighing approx. 160 g), from Harlan Italy (Udine, Italy). The animals were housed under controlled temperature and humidity conditions (22±1° C., 60% humidity), with 12 hours inverted light-darkness cycle, with lights on at 7 a.m. Females were ovariectomized and subcutaneously injected with estradiol valerate (500 μg) and progesterone (2 mg) 48 hours after, to induce estrus. Male rats with very short ejaculation latency time were chosen through starting screening consisting of 7 pre-tests [A. Ågmo, Male rat sexual behavior, Brain Research Protocols 1: 203-209, 1997]. The resulting extract according to Example II or rosmarinic acid were solubilised in Tween 80 (10%) and water and administered to animals, by gastric probe, in a volume of 5 ml/kg, at different doses, 45 minutes before carrying out all the in vivo tests. Sexual behaviour was evaluated under quite conditions, with feeble red light, according to the standard procedure [A. Ågmo, Male rat sexual behavior, Brain Research Protocols 1: 203-209, 1997]. The main parameters recorded during the test were: 1) mount latency (ML); 2) intromission latency (IL); 3) ejaculation latency (EL); 4) postejaculatory interval (PEI); 5) mount frequency (MF); 6) intromission frequency (IF).

Where [1] appears, read: rosmarinic acid 10 mg/kg by gastric probe.
[2] abbreviates: rosmarinic acid 20 mg/kg by gastric probe.

Each structure is given as a SMILES string. Entries after “also recorded” stand apart in the source; their conditions may differ.

For `O=C(/C=C/c1ccc(O)c(O)c1)O[C@H](Cc1ccc(O)c(O)c1)C(=O)O` [Rosmarinic acid, rosmarinic acid], under setting [1], the “ejaculation latency (EL)” value was found to be 1282.2 ± 90.4 s, the “intromission frequency (IF)” value was determined as 19.8 ± 1.2 n°, the “intromission latency (IL)” value was found to be 393.9 ± 89.8 s and the “mount frequency (MF)” value amounted to 1.6 ± 0.3 n°. Under setting [1], the “mount latency (ML)” value was 382.4 ± 93.6 s and the “postejaculatory interval (PEI)” value came out at 548.5 ± 45.5 s. Besides, under setting [2], the “ejaculation latency (EL)” value came out at 1493.1 ± 81.9 s, the “intromission frequency (IF)” value was determined as 27.3 ± 0.7 n°, the “intromission latency (IL)” value stood at 408.4 ± 48.6 s and the “mount frequency (MF)” value came to 1.1 ± 0.1 n°. Under setting [2], the “mount latency (ML)” value is 425.8 ± 83.2 s and the “postejaculatory interval (PEI)” value was found to be 602.2 ± 102.4 s. Besides, the “activity on copulatory activity / ejaculation latency compared with the extract (in words)” value (rosmarinic acid, doses of 10 and 20 mg/kg, same experimental conditions) is on record as “equivalent activity to that of the extract; also recorded: same results”.

The values are drawn from patent US7976878B2, “Use of winter savory (Satureja montana) or the extracts thereof for the preparation of medicaments for the treatment of the premature ejaculation” (Indena S.p.A., priority 2004, dated 2011).
